Results published in patent publication US8541473B2, “3-aminoxalyl-aminobenzamide derivatives and insecticidal and miticidal agents containing same as active ingredient” (Agro-Kanesho Co., Ltd., priority 2009, dated 2013).

Experiments:
Assay type in all cases: in vivo
[1] = tested on: larvae of Plutella xylostella; test: Insecticidal effect on larvae of Plutella xylostella (spray on potted Chinese cabbage); details: 5 ppm; 5 days after release of larvae; agonized larvae regarded as killed
Method: The seeds of Chinese cabbage were sowed in a pot and then the seedlings were raised over 3 weeks. A water-diluted emulsion prepared according to the procedures used in the foregoing drug-preparation Example 1 was sufficiently sprayed on the leaves of these potted plants using an air brush (one concentration, once repeated). After the drug-containing liquid was air-dried, the plants were kept in a thermostatic chamber maintained at 25° C. and the larvae of the insect were set free. After 5 days from the release of the larvae, the latter was examined for whether they were died or not and whether they were in agony or not and the rates of killed insects (larvae) (%) were determined, while the agonized larvae were regarded as killed ones. In this respect, the comparative compounds used in this test were compounds A and B disclosed in JP-A-2006-306771 (Patent Document 25).

nymphs of Myzus persicae = test: Effect of killing larvae of Myzus persicae (leaf piece immersion); details: 50 ppm; 7th day after treatment; agonized nymphs regarded as killed
Method: Three each of adults of Myzus persicae were inoculated on a cut piece (having a size of 3 cm×4 cm) of the leaf of Chinese cabbage and they were made breed for 48 hours within a thermostatic chamber maintained at a temperature of 25° C. After the removal of the adults, each cut piece of the leaf was immersed in a water-diluted emulsion prepared according to the same procedures used in the foregoing Drug-Preparation Example 1 for 5 seconds, and then kept in a thermostatic chamber maintained at 25° C. On 7th day after the foregoing treatment, the nymphs were inspected for whether they were died or not and whether they were in agony or not and the rates (%) of killed nymphs of the plant lice were determined, while the agonized nymphs were regarded as killed ones. In this respect, the comparative compounds used in this test were compounds A and B disclosed in JP-A-2006-306771.

[2] = tested on: female adults of Tetranychus urticae; test: Miticidal effect on adults of Tetranychus urticae (spray on bean leaf-disks); details: 5 ppm; 4 days after drug-spray; agonized adults regarded as killed
Method: A polyethylene cup having a volume of 430 ml and filled with water was covered with a cap in which a hole (diameter: about 5 mm) had been formed at the center thereof. A cut having a width of about 5 mm was made on a circular filter paper having a diameter of 6.5 cm, the strip-like portion of the filter paper, which hung down, was inserted into the cup through the hole thereof in such a manner that the portion was immersed in the water contained in the cup, and absorbent cotton was put on the filter paper so that the water in the cup was always supplied to the absorbent cotton. Then, two leaf-disks (2 cm×5 cm) prepared from the primary leaves of bean were put on the absorbent cotton and then these two leaf-disks were inoculated with 10 female adults of Tetranychus urticae. This cup was placed in a cylinder of acrylic resin having a height of 50 cm and an inner diameter of 10 cm and a water-diluted emulsion prepared according to the same procedures used in the foregoing drug-preparation Example 1 was then sprayed on each cup in an amount of 1.35 ml per cup using an air brush (one concentration, once repeated). After the agricultural chemical was sprayed, the cups were kept in a thermostatic chamber maintained at a temperature of 25° C. After 4 days from the drug-spray, the adults were examined, under the observation by a prism binocular, for whether they were died or not and whether they were in agony or not and the rates of killed mites (adults) (%) were determined, while the agonized adults were regarded as killed ones. In this respect, the comparative compounds used in this test were compounds A and B disclosed in JP-A-2006-306771.

CCc1cc(C(F)(C(F)(F)F)C(F)(F)F)cc(C)c1NC(=O)c1cccc(NC(=O)C(=O)N(C)C(C)(C)C)c1 [Compound 1-44]
100%: rate of killed insects (larvae) [1] | rate of killed nymphs (nymphs of Myzus persicae) | rate of killed adults [2]
